# Measured values reported in patent US4868195A, “Novel enolamides, pharmaceutical compositions and methods of use thereof for activity as modulators of the arachidonic acid cascade” (Warner-Lambert Company, priority 1988, dated 1989).
# “And” between values parts separate entries of the source, which are not always exact repeats. Identical values can stand only once.
# Molecular target: T1, 5-lipoxygenase (Homo sapiens, UniProt P09917)
# T1 construct: endogenous in cells; host or cells: intact leukocytes isolated from human blood
# T1 sequence (P09917 1-674): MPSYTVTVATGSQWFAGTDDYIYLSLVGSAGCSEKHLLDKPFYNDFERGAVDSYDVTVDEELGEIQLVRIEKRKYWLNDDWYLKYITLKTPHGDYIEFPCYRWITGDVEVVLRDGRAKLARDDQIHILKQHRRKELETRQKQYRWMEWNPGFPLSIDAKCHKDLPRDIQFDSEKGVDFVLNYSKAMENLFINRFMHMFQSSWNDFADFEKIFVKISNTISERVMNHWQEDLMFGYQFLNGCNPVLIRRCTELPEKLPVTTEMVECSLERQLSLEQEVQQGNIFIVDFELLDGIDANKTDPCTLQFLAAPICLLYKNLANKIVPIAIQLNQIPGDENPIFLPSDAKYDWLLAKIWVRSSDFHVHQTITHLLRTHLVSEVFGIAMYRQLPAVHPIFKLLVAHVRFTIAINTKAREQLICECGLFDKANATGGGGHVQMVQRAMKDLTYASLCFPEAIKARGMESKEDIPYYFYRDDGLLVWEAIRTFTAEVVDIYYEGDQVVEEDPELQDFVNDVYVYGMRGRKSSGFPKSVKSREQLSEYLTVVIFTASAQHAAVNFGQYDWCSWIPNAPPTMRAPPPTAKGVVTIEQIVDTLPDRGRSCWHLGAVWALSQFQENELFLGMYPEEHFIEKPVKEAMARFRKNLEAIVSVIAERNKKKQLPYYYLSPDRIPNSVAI
# Test: 5-Lipoxygenase Assay Using Isolated Human Leukocytes (5LOA2)
# Format: cell-based
# Details: 5-HETE formation, HPLC, read-out: Concentration (M) for 50.0 % Inhibition, IC (5LOA2)
# Procedure: 5-Lipoxygenase Assay Using Isolated Human Leukocytes (5LOA2)
# The formation of 5-HETE in human leukocytes is considered a measure of 5-lipoxygenase activity. The protocol is described in the following.
# Fresh heparinized or EDTA treated human blood is mixed with 6% dextran-3% dextrose in isotonic saline in the ratio 0.25 ml dextran solution per 1.0 ml blood. After mixing the blood is allowed to sit at room temperature for about 90 minutes while the RBC's settle. During this period, the plasma is removed with a plastic pepette to nalgens tubes.
# The plasma is centrifuged at 800 rpm ([…]) on the Beckman Td-b refrigerated centrifuge to remove the platelets (which remain in the supernatant). The pellet, consisting of leukocytes and erythrocytes, is treated with 10 ml 0.87% ammonium chloride at room temperature for four minutes, lysing the red cells. At the end of four minutes the cells are diluted with a 2x volume of phosphate buffered saline, pH 7.4, and centrifuged for ten minutes. The cells are washed three times with the phosphate buffered saline. […]
# A portion of the ethanol solution is injected into the HPLC system for 5-HETE quantitation.
# The HPLC system consists of Hewlett-Packard 1040A UV spectrophotometry system with an HP85 computer. […] Peaks are measured with a Hewlett Packard 3390A integrator. […] The flow is monitored at 235 nm for 5-HETE quantitation. […]
row,IC50,Structure (SMILES)
1,5e-06 M and 4.6e-06 M,"O=C(Nc1ccccc1CCc1ccc(Cl)c(Cl)c1)C1=C(O)c2ccccc2S(=O)(=O)C1 [Example 8, N-[2-[2-(3,4-Dichlorophenyl)ethyl]phenyl]-4-hydroxy-2H-1-benzothiopyran-3-carboxamide, 1,1-dioxide]"
2,8.4e-06 M,"O=C(Nc1ccccc1Cc1ccc(Cl)c(Cl)c1)C1=C(O)c2ccccc2S(=O)(=O)C1 [Example 81, 2H-1-Benzothiopyran-3-carboxamide, N-[2-[(3,4-dichlorophenyl)methyl]phenyl]-4-hydroxy, 1,1-dioxide]"
